The values below come from PMC5309861, “Mechanistic insight into the substrate specificity of 1,2-β-oligoglucan phosphorylase from Lachnoclostridium phytofermentans” (Scientific Reports, 2017).

In the experiment the target is T1, LpSOGP (Lachnoclostridium phytofermentans, UniProt A9KJS6).
T1 construct: gene Cphy_0694
T1 sequence (A9KJS6 1-1113): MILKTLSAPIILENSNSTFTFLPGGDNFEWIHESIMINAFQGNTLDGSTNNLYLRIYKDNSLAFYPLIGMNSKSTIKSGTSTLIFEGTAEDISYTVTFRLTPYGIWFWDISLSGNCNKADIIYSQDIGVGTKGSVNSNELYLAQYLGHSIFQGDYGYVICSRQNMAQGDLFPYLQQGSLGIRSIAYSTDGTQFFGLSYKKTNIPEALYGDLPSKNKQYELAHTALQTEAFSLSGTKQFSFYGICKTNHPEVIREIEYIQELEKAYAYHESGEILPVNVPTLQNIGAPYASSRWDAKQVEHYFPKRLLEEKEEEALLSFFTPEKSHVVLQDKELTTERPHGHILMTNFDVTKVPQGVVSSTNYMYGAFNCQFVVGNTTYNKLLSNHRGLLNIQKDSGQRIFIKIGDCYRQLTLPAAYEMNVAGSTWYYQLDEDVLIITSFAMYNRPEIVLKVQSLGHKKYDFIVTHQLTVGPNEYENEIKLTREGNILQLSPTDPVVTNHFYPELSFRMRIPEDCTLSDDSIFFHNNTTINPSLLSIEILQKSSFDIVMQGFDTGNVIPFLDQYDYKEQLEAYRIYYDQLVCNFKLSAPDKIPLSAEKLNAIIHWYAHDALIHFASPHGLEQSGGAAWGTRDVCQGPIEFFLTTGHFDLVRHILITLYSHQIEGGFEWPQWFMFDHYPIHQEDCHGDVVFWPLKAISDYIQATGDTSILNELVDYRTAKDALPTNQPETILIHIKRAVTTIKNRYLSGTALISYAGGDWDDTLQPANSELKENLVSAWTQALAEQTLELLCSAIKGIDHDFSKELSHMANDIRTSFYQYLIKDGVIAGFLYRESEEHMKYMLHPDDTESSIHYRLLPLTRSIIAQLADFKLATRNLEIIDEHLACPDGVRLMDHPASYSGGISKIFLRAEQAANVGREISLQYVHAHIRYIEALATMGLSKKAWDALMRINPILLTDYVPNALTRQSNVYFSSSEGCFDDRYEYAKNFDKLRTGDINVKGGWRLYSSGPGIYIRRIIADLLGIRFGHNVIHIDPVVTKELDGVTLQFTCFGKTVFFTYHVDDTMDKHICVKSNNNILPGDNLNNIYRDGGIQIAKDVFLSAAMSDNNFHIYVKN
To be noted: phosphorolysis; pH 7.5, 30 °C; co-substrate oligosaccharide not stated. The text has this:
G1P release, coupled phosphoglucomutase / G6PDH assay, Michaelis-Menten fit on LpSOGP

For `O=P(O)(O)O` [Pi, inorganic phosphate], the “Synthesis / kcat/Km / (s^-1 mM^-1)” value amounted to 11 ± 1 mM.
